Data reported in US20260337211A1, “IP5 SUBSTITUTED COMPOUNDS” (SANIFIT THERAPEUTICS, S.A., priority 2022, published 2026).
Where a name gives a salt, the structure may show the parent alone.

Experiment: In vitro inhibition of calcium phosphate crystallization in human plasma (spectrophotometric, 550 nm)
Type: biochemical
Conditions: 0-100 μM compound, 1.5 mM phosphate and 12.5 mM calcium, pH 7.4, 30 min at rt, slope between 6 and 24 min, 30 min, read-out: Relative Potency (EC50)
Protocol: The in vitro efficacy of the IP5 substituted compounds (e.g., Compounds 1 to 32) of the invention on the inhibition of calcium phosphate crystallization in human plasma samples was evaluated according to a spectrophotometric assay previously described in the art (Ferrer M, et al., Sci Rep 2017; 7:6858, doi:10.1038/s41598-017-07203-x).
A 96-well plate was employed. Plasma was spiked (1 volume of the IP5 substituted compounds of the invention per 19 volumes of plasma) with increasing concentrations of the derivatives in the range of 0-100 μM. Plasma was then centrifuged at 10,000 g at rt and subsequently mixed with a mixture of 5 mM hydrogen phosphate and 41.67 mM calcium to attain final concentrations of 1.5 mM phosphate and 12.5 mM calcium, respectively. All reagent solutions were filtered, and pH adjusted to 7.4.
Crystallization of calcium phosphate was monitored spectrophotometrically for 30 min at rt by measuring the increments in absorbance at 550 nm using the Biotek Powerwave XS Microplate spectrophotometer (BioTek Instruments, Inc., Winooski, VT, US). The plate was incubated at rt in an orbital shaker and absorbance measured every 3 min.
Plasma crystallization was assessed based on slope measurement in the linear range between 6 and 24 min from plots of increase in absorbance versus logarithm of time. The efficacy of different myo-inositol phosphates derivatives in preventing in vitro formation of calcium phosphate crystals was assessed in human plasma samples using the slopes obtained between 6- and 24-min. Inhibition of crystallization was measured by comparing the slopes of the control sample (blank plasma) with those of samples containing the inhibitor as shown below: […]

EC50 [µM] | Molecule
5 to 10 | O=P(O)(O)OC1C(OCCCCCC(F)(F)F)C(OP(=O)(O)O)C(OP(=O)(O)O)C(OP(=O)(O)O)C1OP(=O)(O)O (racemic) [Compound 50, rac-1-O-(6,6,6-Trifluorohexyl)-myo-inositol-2,3,4,5,6-pentakis(phosphate) decasodium salt]

Same assay, conditions: 0-100 μM compound, 1.5 mM phosphate and 12.5 mM calcium, pH 7.4, 30 min at rt, slope between 6 and 24 min, read-out: Relative Potency (EC50)

EC50 [µM] | Molecule
5 to 10 | rac-4-O-(7-Methoxyheptyl)-myo-inositol-1,2,3,5,6-pentakis(phosphate) decasodium salt [Compound 23]
5 to 10 | O=P(O)(O)OC1C(OCCCCCO)C(OP(=O)(O)O)C(OP(=O)(O)O)C(OP(=O)(O)O)C1OP(=O)(O)O (stereo not shown) [Compound 40, 2-O-(5-Hydroxypentyl)-myo-inositol-1,3,4,5,6-pentakis(phosphate) decasodium salt]
≤ 5 | rac-4-O-(6-Aminohexyl)-myo-inositol-1,2,3,5,6-pentakis(phosphate) decasodium salt [Compound 28]
5 to 10 | CCCOC1C(OP(=O)(O)O)C(OP(=O)(O)O)C(OP(=O)(O)O)C(OP(=O)(O)O)C1OP(=O)(O)O (stereo not shown) [Compound 34, 2-O-Propyl-myo-inositol-1,3,4,5,6-pentakis(phosphate) decasodium salt]
5 to 10 | COCCCCCCCCCO[C@H]1[C@@H](OP(=O)(O)O)[C@H](OP(=O)(O)O)[C@@H](OP(=O)(O)O)[C@H](OP(=O)(O)O)[C@H]1OP(=O)(O)O [Compound 8, 2-O-(9-Methoxynonyl)-myo-inositol-1,3,4,5,6-pentakis(phosphate) decasodium salt]
≤ 5 | rac-1-O-(9-Methoxynonyl)-myo-inositol-2,3,4,5,6-pentakis(phosphate) decasodium salt [Compound 47]
> 10 | 2-O-(5-(4-(Methoxymethyl)-1H-1,2,3-triazol-1-yl)pentyl)-myo-inositol-1,3,4,5,6-pentakis(phosphate) decasodium [Compound 41]
≤ 5 | 2-O-Pentyl-myo-inositol-1,3,4,5,6-pentakis(phosphate) decasodium salt [Compound 6]
≤ 5 | rac-4-O-(5-Methoxypentyl)-myo-inositol-1,2,3,5,6-pentakis(phosphate) decasodium salt [Compound 3]
> 10 | O=C(O)CCc1cn(CCCOC2C(OP(=O)(O)O)C(OP(=O)(O)O)C(OP(=O)(O)O)C(OP(=O)(O)O)C2OP(=O)(O)O)nn1 (racemic) [Compound 25, rac-4-O-(3-(4-(2-carboxyethyl)-1H-1,2,3-triazol-1-yl)propyl)-myo-inositol-1,2,3,5,6-pentakis(phosphate) undecasodium salt]
5 to 10 | rac-4-O-(5-Acetamidopentyl)-myo-inositol-1,2,3,5,6-pentakis(phosphate) decasodium salt [Compound 19]
> 10 | rac-4-O-(6-(4-(carboxy)-1H-1,2,3-triazol-1-yl)hexyl)-myo-inositol-1,2,3,5,6-pentakis(phosphate) undecasodium salt [Compound 26]
5 to 10 | rac-1-O-(5-Acetamidopentyl)-myo-inositol-2,3,4,5,6-pentakis(phosphate) decasodium salt [Compound 49]
5 to 10 | 2-O-Propargyl-myo-inositol-1,3,4,5,6-pentakis(phosphate) decasodium salt [Compound 43]
5 to 10 | 5-O-(2-Cyclopropylethyl)-myo-inositol-1,2,3,4,6-pentakis(phosphate) decasodium salt [Compound 30]
5 to 10 | 2-O-((1-(2-Carboxyethyl)-1H-1,2,3-triazol-4-yl)methyl)-myo-inositol-1,3,4,5,6-pentakis(phosphate) undecasodium salt [Compound 42]
≤ 5 | COc1ccc(CCCOC2C(OP(=O)(O)O)C(OP(=O)(O)O)C(OP(=O)(O)O)C(OP(=O)(O)O)C2OP(=O)(O)O)cc1 (racemic) [Compound 14, rac-4-O-(3-(4-Methoxyphenyl)propyl)-myo-inositol-1,2,3,5,6-pentakis(phosphate) decasodium salt]
5 to 10 | O=P(O)(O)OC1C(OCCC2CC2)C(OP(=O)(O)O)C(OP(=O)(O)O)C(OP(=O)(O)O)C1OP(=O)(O)O (stereo not shown) [Compound 39, 2-O-(2-Cyclopropylethyl)-myo-inositol-1,3,4,5,6-pentakis(phosphate) decasodium salt]
≤ 5 | rac-4-O-(6,6,6-Trifluorohexyl)-myo-inositol-1,2,3,5,6-pentakis(phosphate) decasodium salt [Compound 13]
≤ 5 | rac-4-O-Propyl-myo-inositol-1,2,3,5,6-pentakis(phosphate) decasodium salt [Compound 24]
≤ 5 | rac-4-O-Pentyl-myo-inositol-1,2,3,5,6-pentakis(phosphate) decasodium salt [Compound 1]
≤ 5 | O=P(O)(O)OC1C(OCCC2CCCC2)C(OP(=O)(O)O)C(OP(=O)(O)O)C(OP(=O)(O)O)C1OP(=O)(O)O (racemic) [Compound 16, rac-4-O-(2-Cyclopentylethyl)-myo-inositol-1,2,3,5,6-pentakis(phosphate) decasodium salt]
5 to 10 | O=P(O)(O)O[C@@H]1[C@@H](OP(=O)(O)O)[C@H](OP(=O)(O)O)[C@H](OCCC2CCCC2)[C@H](OP(=O)(O)O)[C@H]1OP(=O)(O)O [Compound 38, 2-O-(2-Cyclopentylethyl)-myo-inositol-1,3,4,5,6-pentakis(phosphate) decasodium salt]
5 to 10 | 5-O-(9-Methoxynonyl)-myo-inositol-1,2,3,4,6-pentakis(phosphate) decasodium salt [Compound 31]
≤ 5 | COCCCCCCCCCCCCCCCCCCCCCCCCCCCCCO[C@H]1[C@@H](OP(=O)(O)O)[C@H](OP(=O)(O)O)[C@@H](OP(=O)(O)O)[C@H](OP(=O)(O)O)[C@H]1OP(=O)(O)O [Compound 10, 2-O-(29-methoxynonacosyl)-myo-inositol-1,3,4,5,6-pentakis(phosphate) decasodium salt]
5 to 10 | CC(C)CCCOC1C(OP(=O)(O)O)C(OP(=O)(O)O)C(OP(=O)(O)O)C(OP(=O)(O)O)C1OP(=O)(O)O (racemic) [Compound 12, rac-4-O-(4-Methylpentyl)-myo-inositol-1,2,3,5,6-pentakis(phosphate) decasodium salt]
5 to 10 | O=P(O)(O)OC1C(OCCC2CC2)C(OP(=O)(O)O)C(OP(=O)(O)O)C(OP(=O)(O)O)C1OP(=O)(O)O (racemic) [Compound 17, rac-4-O-(2-Cyclopropylethyl)-myo-inositol-1,2,3,5,6-pentakis(phosphate) decasodium salt]
5 to 10 | NC(=O)CCCCCO[C@H]1[C@@H](OP(=O)(O)O)[C@H](OP(=O)(O)O)[C@@H](OP(=O)(O)O)[C@H](OP(=O)(O)O)[C@H]1OP(=O)(O)O [Compound 37, 2-O-(6-Amino-6-oxohexyl)-myo-inositol-1,3,4,5,6-pentakis(phosphate) decasodium salt]
≤ 5 | rac-1-O-Propyl-myo-inositol-2,3,4,5,6-pentakis(phosphate) decasodium salt [Compound 32]

Molecule | EC50 [µM]
rac-1-O-((1-(2-(Metoxycarbonyl)ethyl)-1H-1,2,3-triazol-4-yl)methyl)-myo-inositol-2,3,4,5,6-pentakis(phosphate) undecasodium salt [Compound 53] | 5 to 10
